Source: article PMC11329504, “Identification of novel small molecule-based strategies of COL7A1 upregulation and readthrough activity for the treatment of recessive dystrophic epidermolysis bullosa” (Scientific Reports, 2024)
Read-outs that look alike come from different tables or passages of the source.

Legend:
[1] = test system: truncated and full-length C7 in RDEB_L1, RDEB_L5 and HEK293^R578X cells; assay: Western blot detection of truncated and full-length C7; assay type: cell-based, human; details: RDEB_L1, RDEB_L5 and HEK293^R578X cells
Description: For western blot, RDEB or normal human keratinocytes were lysed in protein extraction buffer (50 mM Tris–HCl [pH 7.5], 100 mM NaCl, 1% Nonidet P-40, and 4 mM EDTA) containing proteinase inhibitors cocktail (Complete Mini, EDTA free; Roche Diagnostics, Mannheim, Germany). Lysates were incubated for 30 min on ice and centrifuged at 15,000 g for 30 min at 4 °C. Supernatants were then collected and concentrated by ultrafiltration using Amicon Ultra columns (10 kDa; Millipore, Ireland). Protein concentrations were measured using the Bradford assay (Bio-Rad, Hercules, CA). For each sample, […] total protein was resolved on NuPAGE Novex 3%–8% Tris–Acetate gel electrophoresis (Invitrogen, Carlsbad, CA) and electrotransferred to nitrocellulose membranes (Invitrogen, Carlsbad, CA). For type VII collagen analysis, blots were probed with a monospecific polyclonal anti-C7 antibody (a generous gift from Dr. A. Nystrom, University of Freiburg). Invitrogen anti-MDH1 polyclonal antibody (PA550446, 1:1000) was used to detect MDH1. Standard antibodies against a reference protein were used as a loading control, as indicated. Visualization of the resulting signal was performed by incubating with horseradish peroxidase (HRP)- conjugated anti-rabbit antibody (Amersham, Burlington, MA) and West Pico Chemiluminescent Substrate (Pierce, Rockford, IL).

[2] = test system: total C7 in HEK293^R578X cells; assay: AlphaLISA quantification of total C7 in recombinant HEK293^R578X cells; assay type: cell-based, human
Description: (§1) The AlphaLISA assay was developed in-house by using the biotin-conjugated rabbit polyclonal antibody anti-C7 (LSBio LS-298147) and conjugating the acceptor beads (PerkinElmer 6772001) to a monoclonal anti-Collagen type VII antibody produced in mouse, clone LH7.2 (Thermo MA5-13,432). Formulation of the mAb clone LH7.2 was exchanged to PBS and concentrated 5 × by using Amicon® Ultra-0.5 centrifugal filters up to 1 mg/ml. The conjugation procedure was carried out according to the protocol provided by PerkinElmer.
(§2) For compound treatment in RDEB patient-derived transformed keratinocytes, 5,000 cells were plated in 20 µL of supplemented KGM media containing 20 ng/mL TGFβ2 (SIGMA GF113) without GA-1000 in 384-well cell culture plates (Greiner 781098). The day after, 5 µL of test compounds prepared 5 × in supplemented KGM without GA-1000 were added over cells and incubated for 48 h at 37 °C and 5% CO2. For compound treatment in HEK293^R578X, 10,000 cells were plated in 20 μL of DMEM (High Glucose, 2 mM L-Glutamine, sodium pyruvate, and FBS 10%) in 384-well cell culture plates (Greiner 781,098,). The day after, 5 μL of test compounds prepared 5 × in DMEM complete medium were added over cells and incubated for 48 h at 37 °C and 5% CO2.
(§3) After the treatment process, 2.5 µL of RIPA buffer 10 x (Abcam ab156034) were added over the […] of cells for 20 min at room temperature to obtain a complete cell lysis. Then, 2 μL of sample (i.e., cell lysate with supernatant) were transferred to the AlphaLISA plate (PerkinElmer 6,059,340) containing […] of antibodies mixture ([…] of acceptor Beads-Ab and […] of biotin-rAb) prepared in AlphaLISA buffer 1 x (PerkinElmer AL00F). The reaction was incubated for 90 min at room temperature. Finally, 10 μL of […] of donor beads (PerkinElmer 6760002,) were added to the reaction under subdued light, mixed gently, and incubated for 3 h at room temperature. AlphaLISA signal was detected with an Envision microplate reader (Perkin Elmer) using the following setting: Filter: AlphaScreen, Excitation time: 180 ms, Integration time: 300 ms.
(§4) Statistical analyses were performed using GraphPad Prism v. 7.04 (La Jolla, California). Results are shown as mean ± SD of experimental replicates. Dose–response curves to assess compound treatment effect were plotted in a four-parameter logistic model. Relative EC50, representing the total drug concentration producing a 50% effect, was calculated in the four-parameter logistic equation. Comparisons of collagen protein and mRNA expression in different experimental conditions were made using ANOVA, followed by a post hoc test. statistical significance was considered with p values < 0.05.

[3] = test system: total (truncated + full length) C7 in RDEB_L5 cells; assay: AlphaLISA quantification of total C7 in RDEB_L5 cells; assay type: cell-based, human
Description: as §1, §2, §3, §4

NHK cells = assay: Cytotoxicity, ATP levels, normal human keratinocytes (NHK); assay type: cell-based; details: NHK cells, ATP levels, at 40 µM
Description: The viability of RDEB patient-derived cell lines or NHK was evaluated by measuring the ATP levels as an indirect readout of the potential cytotoxicity effect of compounds. Cells were plated and treated exactly with the same conditions as those followed in the AlphaLISA assay, described above. To measure ATP levels, cells were processed using the ATPlite™ 1step luminescence-based assay (PerkinElmer 6,016,731), following the manufacturer’s protocol. 25 μL of ATPlite™ reagent was added directly over cells and plates were covered with a sealing film and shaken for 25 min using a microtiter plate shaker. Luminescence was measured in a Luminoskan Ascent luminometer (Thermo Fisher Scientific). 10 μM of Staurosporine was used as a reference compound and control for the total cytotoxicity.

[4] = test system: total (truncated + full length) C7 in RDEB_L1 cells; assay: AlphaLISA quantification of total C7 in RDEB_L1 cells; assay type: cell-based, human
Description: as §1, §2, §3, §4

CN[C@@H]1[C@@H](O)[C@@H](O[C@@H]2[C@@H](O)[C@H](O[C@H]3O[C@H]([C@@H](C)O)[C@@H](O)[C@H](O)[C@H]3N)[C@@H](N)C[C@H]2N)OC[C@]1(C)O [Compound G418, G418, reference compound]
C7 products induced, western blot [1]: detectable upregulation of full length and truncated C7 | Increase in C7 levels Emax, % vs baseline ([2]; at 40 µM): 71 ± 6 at 40 % vs baseline | EC50 ([2]; total C7 AlphaLISA, 48 h, relative EC50, mean ± SD, read-out: Increase in C7 levels EC50): 16 ± 0.09 µM | Increase in C7 levels Emax, % vs baseline ([3]; at 25 µM, 20 ng/mL TGFß2): 35.5 at 25 % vs baseline | EC50 ([3]; total C7 AlphaLISA, 48 h, 20 ng/mL TGFß2, relative EC50, mean ± SD, read-out: Increase in C7 levels EC50): 12 µM | Cytotox. % inhibition of viability (NHK cells): 30.8% ± 3.4 at 40 (n=4) | Increase in C7 levels Emax, % vs baseline ([4]; RDEB_L1 cells, at 20 µM, 20 ng/mL TGFß2): 124 ± 76 at 20 % vs baseline | EC50 ([4]; RDEB_L1 cells, read-out: EC50 in the AlphaLISA assay): 4.9 µM | EC50 ([4]; in RDEB_L1 and RDEB_L5 cells, read-out: EC50 (range over two cell lines)): 4.9 to 12 µM
